The values that follow come from US20170334899A1, “AMINO-SUBSTITUTED ISOTHIAZOLES” (Bayer Pharma Aktiengesellschaft, priority 2014, published 2017).

Where only a bound is given, the exact number is not on record here.

This experiment addresses T1, catalytic domain of human Bub1 (amino acids 704-1085) (Homo sapiens, UniProt O43683).
T1 construct: catalytic domain of human Bub1 (amino acids 704-1085); His6 (N); made in house; host or cells: insect cells (Hi5)
Description: Bub1 kinase assay (TR-FRET). The note with it: 10 μM ATP, avg, read-out: Bub1 avg (IC50 [mol/l]). Type of experiment: biochemical. In outline:
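Readout is the 665/620 nm TR-FRET ratio from anti-phosphoserine antibody, Eu-labelled anti-mouse IgG and streptavidin-XL665, scaled between no-enzyme and uninhibited controls. Reaction: 1 μM biotinylated peptide, 10 μM ATP, 60 min, 22 °C, after 15 min compound preincubation with His6-Bub1 (704-1085, insect-expressed, ~200 ng/ml).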
Background: In TR-FRET formats the signal depends on donor and acceptor labels being close together.

T1 sequence (O43683 704-1085): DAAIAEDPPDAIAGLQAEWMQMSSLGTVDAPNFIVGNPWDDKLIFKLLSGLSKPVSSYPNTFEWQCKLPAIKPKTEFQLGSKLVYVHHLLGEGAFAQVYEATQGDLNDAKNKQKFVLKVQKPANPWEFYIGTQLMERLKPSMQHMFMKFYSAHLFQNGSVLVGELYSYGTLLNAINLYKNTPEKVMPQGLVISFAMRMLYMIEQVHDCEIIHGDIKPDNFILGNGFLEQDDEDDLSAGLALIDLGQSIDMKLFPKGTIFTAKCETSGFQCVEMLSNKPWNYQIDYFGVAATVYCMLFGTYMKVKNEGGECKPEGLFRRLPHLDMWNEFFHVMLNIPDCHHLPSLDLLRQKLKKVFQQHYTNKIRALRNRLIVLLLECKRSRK

Take `Cc1nsc(Nc2cnc(C(F)(F)F)cn2)c1C(=O)Nc1ccc(F)c(OC[C@@H]2CCN(CCC(F)(F)F)C2)c1` [Example 340, N-(4-fluoro-3-{[(3R)-1-(3,3,3-trifluoropropyl)pyrrolidin-3-yl]methoxy}phenyl)-3-methyl-5-{[5-(trifluoromethyl)pyrazin-2-yl]amino}-1,2-thiazole-4-carboxamide]: the IC50 was more than 20 µM.

Turning to `Cc1nsc(Nc2cnc(C(F)(F)F)cn2)c1C(=O)Nc1ccc(OCC2CCN(CC(F)F)CC2)nc1` [Example 345, N-(6-{[1-(2,2-difluoroethyl)piperidin-4-yl]methoxy}pyridin-3-yl)-3-methyl-5-{[5-(trifluoromethyl)pyrazin-2-yl]amino}-1,2-thiazole-4-carboxamide], the IC50 is not below 20 µM.

For `Cc1nsc(Nc2cnc(C(F)(F)F)cn2)c1C(=O)Nc1ccc(OCCCN(C)CCF)nc1` [Example 352, N-(6-{3-[(2-fluoroethyl)(methyl)amino]propoxy}pyridin-3-yl)-3-methyl-5-{[5-(trifluoromethyl)pyrazin-2-yl]amino}-1,2-thiazole-4-carboxamide], the IC50 amounted to 19 µM.

For `Cc1nsc(Nc2cnc(C(F)(F)F)cn2)c1C(=O)Nc1ccc(OCC2CCCN(CC(F)(F)F)C2)nc1` (centres unmarked) [Example 326, 3-methyl-N-(6-{[1-(2,2,2-trifluoroethyl)piperidin-3-yl]methoxy}pyridin-3-yl)-5-{[5-(trifluoromethyl)pyrazin-2-yl]amino}-1,2-thiazole-4-carboxamide], the IC50 was not below 20 µM.

Consider `Cc1nsc(Nc2cnc(C(F)(F)F)cn2)c1C(=O)Nc1ccc(O[C@@H]2CCN(CCC(F)(F)F)C2)nc1` [Example 381, 3-methyl-5-{[5-(trifluoromethyl)pyrazin-2-yl]amino}-N-(6-{[(3R)-1-(3,3,3-trifluoropropyl)pyrrolidin-3-yl]oxy}pyridin-3-yl)-1,2-thiazole-4-carboxamide], for which the IC50 is more than 20 µM.

Regarding `CCN1CC[C@@H](Oc2ccc(NC(=O)c3c(C)nsc3Nc3cnc(C(F)(F)F)cn3)cn2)[C@H](F)C1` [Example 369, N-(6-{[(3R,4R)-1-ethyl-3-fluoropiperidin-4-yl]oxy}pyridin-3-yl)-3-methyl-5-{[5-(trifluoromethyl)pyrazin-2-yl]amino}-1,2-thiazole-4-carboxamide], the IC50 is more than 20 µM.

Take `Cc1nsc(Nc2cnc(C(F)(F)F)cn2)c1C(=O)Nc1ccc(O[C@H]2CCN(CC(F)(F)F)C2)nc1` [Example 383, 3-methyl-N-(6-{[(3S)-1-(2,2,2-trifluoroethyl)pyrrolidin-3-yl]oxy}pyridin-3-yl)-5-{[5-(trifluoromethyl)pyrazin-2-yl]amino}-1,2-thiazole-4-carboxamide]: the IC50 was not below 20 µM.

Regarding `Cc1nsc(Nc2cnc(C(F)(F)F)cn2)c1C(=O)Nc1ccc(N2CCN(CC(F)F)CC2)cn1` [Example 372, N-{5-[4-(2,2-difluoroethyl)piperazin-1-yl]pyridin-2-yl}-3-methyl-5-{[5-(trifluoromethyl)pyrazin-2-yl]amino}-1,2-thiazole-4-carboxamide], the IC50 was more than 20 µM.

On to `Cc1nsc(Nc2cnc(C(F)(F)F)cn2)c1C(=O)Nc1ccc(F)c(OCC2CCCN(CC(F)(F)F)C2)c1` (centres unmarked) [Example 337, N-(4-fluoro-3-{[1-(2,2,2-trifluoroethyl)piperidin-3-yl]methoxy}phenyl)-3-methyl-5-{[5-(trifluoromethyl)pyrazin-2-yl]amino}-1,2-thiazole-4-carboxamide], for which the IC50 is not below 20 µM.

With `Cc1nsc(Nc2cnc(C(F)(F)F)cn2)c1C(=O)Nc1ccc(N2CCN(CC(F)F)CC2)nc1` [Example 359, N-{6-[4-(2,2-difluoroethyl)piperazin-1-yl]pyridin-3-yl}-3-methyl-5-{[5-(trifluoromethyl)pyrazin-2-yl]amino}-1,2-thiazole-4-carboxamide], the IC50 is more than 20 µM.

Take `Cc1nsc(Nc2cnc(C(F)(F)F)cn2)c1C(=O)Nc1ccc(OCC2CCCN(CCF)C2)nc1` (centres unmarked) [Example 325, N-(6-{[1-(2-fluoroethyl)piperidin-3-yl]methoxy}pyridin-3-yl)-3-methyl-5-{[5-(trifluoromethyl)pyrazin-2-yl]amino}-1,2-thiazole-4-carboxamide]: the IC50 was not below 20 µM.

Regarding `Cc1nsc(Nc2cnc(C(F)(F)F)cn2)c1C(=O)Nc1ccc(OCC2CCN(CCF)CC2)nc1` [Example 344, N-(6-{[1-(2-fluoroethyl)piperidin-4-yl]methoxy}pyridin-3-yl)-3-methyl-5-{[5-(trifluoromethyl)pyrazin-2-yl]amino}-1,2-thiazole-4-carboxamide], the IC50 was not below 20 µM.

Turning to `Cc1nsc(Nc2cnc(C(F)(F)F)cn2)c1C(=O)Nc1ccc(O[C@@H]2CCN(CC(F)(F)F)C2)nc1` [Example 380, 3-methyl-N-(6-{[(3R)-1-(2,2,2-trifluoroethyl)pyrrolidin-3-yl]oxy}pyridin-3-yl)-5-{[5-(trifluoromethyl)pyrazin-2-yl]amino}-1,2-thiazole-4-carboxamide], the IC50 was more than 20 µM.

In the case of `Cc1nsc(Nc2cnc(C(F)(F)F)cn2)c1C(=O)Nc1ccc(F)c(OC[C@@H]2CCCN(CC(F)F)C2)c1` [Example 341, N-(3-{[(3R)-1-(2,2-difluoroethyl)piperidin-3-yl]methoxy}-4-fluorophenyl)-3-methyl-5-{[5-(trifluoromethyl)pyrazin-2-yl]amino}-1,2-thiazole-4-carboxamide], the IC50 is more than 20 µM.

On to `Cc1nsc(Nc2cnc(C(F)(F)F)cn2)c1C(=O)Nc1ccc(OCC2CCCN(CCC(F)(F)F)C2)nc1` (centres unmarked) [Example 328, 3-methyl-5-{[5-(trifluoromethyl)pyrazin-2-yl]amino}-N-(6-{[1-(3,3,3-trifluoropropyl)piperidin-3-yl]methoxy}pyridin-3-yl)-1,2-thiazole-4-carboxamide], for which the IC50 was not below 20 µM.

For `Cc1nsc(Nc2cnc(C(F)(F)F)cn2)c1C(=O)Nc1ccc(OCC2CCN(CCC(F)(F)F)CC2)nc1` [Example 347, 3-methyl-5-{[5-(trifluoromethyl)pyrazin-2-yl]amino}-N-(6-{[1-(3,3,3-trifluoropropyl)piperidin-4-yl]methoxy}pyridin-3-yl)-1,2-thiazole-4-carboxamide], the IC50 is not below 20 µM.

Consider `Cc1nsc(Nc2cnc(C(F)(F)F)cn2)c1C(=O)Nc1ccc(O[C@H]2CCN(CC(F)F)C2)nc1` [Example 382, N-(6-{[(3S)-1-(2,2-difluoroethyl)pyrrolidin-3-yl]oxy}pyridin-3-yl)-3-methyl-5-{[5-(trifluoromethyl)pyrazin-2-yl]amino}-1,2-thiazole-4-carboxamide], for which the IC50 was more than 20 µM.

Consider `Cc1nsc(Nc2cnc(C(F)(F)F)cn2)c1C(=O)Nc1ccc(F)c(OC[C@@H]2CCN(CC(F)(F)F)C2)c1` [Example 339, N-(4-fluoro-3-{[(3R)-1-(2,2,2-trifluoroethyl)pyrrolidin-3-yl]methoxy}phenyl)-3-methyl-5-{[5-(trifluoromethyl)pyrazin-2-yl]amino}-1,2-thiazole-4-carboxamide], for which the IC50 is more than 20 µM.

Take `Cc1nsc(Nc2cnc(C(F)(F)F)cn2)c1C(=O)Nc1ccc(OC2CCCN(CC(F)F)C2)nc1` (centres unmarked) [Example 330, N-(6-{[1-(2,2-difluoroethyl)piperidin-3-yl]oxy}pyridin-3-yl)-3-methyl-5-{[5-(trifluoromethyl)pyrazin-2-yl]amino}-1,2-thiazole-4-carboxamide]: the IC50 was not below 20 µM.

As for `CCN1CC[C@H](Oc2ccc(NC(=O)c3c(C)nsc3Nc3cnc(C(F)(F)F)cn3)cn2)[C@@H](F)C1` [Example 365, N-(6-{[(3S,4S)-1-ethyl-3-fluoropiperidin-4-yl]oxy}pyridin-3-yl)-3-methyl-5-{[5-(trifluoromethyl)pyrazin-2-yl]amino}-1,2-thiazole-4-carboxamide], the IC50 stood at 16 µM.

Take `CCCN1CC[C@H](Oc2ccc(NC(=O)c3c(C)nsc3Nc3cnc(C(F)(F)F)cn3)cn2)[C@@H](F)C1` [Example 370, N-(6-{[(3S,4S)-3-fluoro-1-propylpiperidin-4-yl]oxy}pyridin-3-yl)-3-methyl-5-{[5-(trifluoromethyl)pyrazin-2-yl]amino}-1,2-thiazole-4-carboxamide]: the IC50 is more than 20 µM.

Regarding `Cc1nsc(Nc2cnc(C(F)(F)F)cn2)c1C(=O)Nc1ccc(OCC2CCCN(CC(F)F)C2)nc1` (centres unmarked) [Example 327, N-(6-{[1-(2,2-difluoroethyl)piperidin-3-yl]methoxy}pyridin-3-yl)-3-methyl-5-{[5-(trifluoromethyl)pyrazin-2-yl]amino}-1,2-thiazole-4-carboxamide], the IC50 was not below 20 µM.

For the compound `Cc1nsc(Nc2cnc(C(F)(F)F)cn2)c1C(=O)Nc1ccc(N2CCN(CC(F)(F)F)CC2)nc1` [Example 360, 3-methyl-N-{6-[4-(2,2,2-trifluoroethyl)piperazin-1-yl]pyridin-3-yl}-5-{[5-(trifluoromethyl)pyrazin-2-yl]amino}-1,2-thiazole-4-carboxamide], the IC50 is more than 20 µM.

Turning to `Cc1nsc(Nc2cnc(C(F)(F)F)cn2)c1C(=O)Nc1ccc(CCC2CCN(CC(F)F)CC2)nc1` [Example 356, N-(6-{2-[1-(2,2-difluoroethyl)piperidin-4-yl]ethyl}pyridin-3-yl)-3-methyl-5-{[5-(trifluoromethyl)pyrazin-2-yl]amino}-1,2-thiazole-4-carboxamide], the IC50 was more than 20 µM.

For the compound `Cc1nsc(Nc2cnc(C(F)(F)F)cn2)c1C(=O)Nc1ccc(OC[C@@H]2CCCN(CC(F)(F)F)C2)nc1` [Example 376, 3-methyl-N-(6-{[(3R)-1-(2,2,2-trifluoroethyl)piperidin-3-yl]methoxy}pyridin-3-yl)-5-{[5-(trifluoromethyl)pyrazin-2-yl]amino}-1,2-thiazole-4-carboxamide], the IC50 was more than 20 µM.

Regarding `Cc1nsc(Nc2cnc(C(F)(F)F)cn2)c1C(=O)Nc1ccc(F)c(OC[C@@H]2CCCN(CCC(F)(F)F)C2)c1` [Example 395, N-(4-fluoro-3-{[(3R)-1-(3,3,3-trifluoropropyl)piperidin-3-yl]methoxy}phenyl)-3-methyl-5-{[5-(trifluoromethyl)pyrazin-2-yl]amino}-1,2-thiazole-4-carboxamide], the IC50 is more than 20 µM.
